These results are taken from article PMC9797592, “TJ-M2010-5, a novel CNS drug candidate, attenuates acute cerebral ischemia-reperfusion injury through the MyD88/NF-κB and ERK pathway” (Frontiers in Pharmacology, 2022).

The subject of assay [1] is CIRI mice. Description: MCAO cerebral ischemia-reperfusion injury model: neurological deficit score and TTC infarct volume. The class given is in vivo, C57BL/6 mice. On the procedure: Male C57BL/6 mice (Beijing Vital River Laboratory Animal Technology Co. Ltd., Beijing, China) weighing 22–28 g and aged 8–10 weeks were used. All animal experiments were approved by the Institutional Animal Care and Use Committee of Tongji Hospital (Wuhan, China). All procedures were performed in accordance with specific pathogen-free standards. Mice were randomly divided into the following seven groups: sham, I/R, vehicle (I/R + saline), I/R + TJ-5 (5 mg/kg), I/R + TJ-5 (10 mg/kg), I/R + TJ-5 (15 mg/kg), and I/R + edaravone (3 mg/kg).
The mice were anesthetized with 1% pentobarbital sodium solution via intraperitoneal injection, and the body temperature was maintained at 37.0°C–37.5°C. The middle cerebral artery occlusion (MCAO) model was established according to the Longa method, as described previously ([Longa et al., 1989]). In brief, the right carotid artery was carefully separated and exposed. A silicon-coated embolic suture (Doccol, United States) was inserted slowly from the external carotid artery (ECA) into the internal carotid artery (ICA) until it reached the middle cerebral artery (MCA). After 1 h of ischemia, the embolic suture was withdrawn. The surgical procedure in the sham group was the same as that in the I/R group, but the MCA was not obstructed.
After 24 h of reperfusion, each group of mice was scored blindly, according to the scoring system of the Longa method ([Longa et al., 1989]). The score was 0 for no obvious neurological deficit, one for inability to fully extend the left forelimb, two for turning to the left, three for leaning to the left while walking, and four for the inability to walk spontaneously and impaired consciousness.
The mice were sacrificed 24 h after I/R. Mouse brains were harvested for the measurement of cerebral infarct volume. The brains were frozen at −80°C for 5 min and cut into five 2-mm thick slices. The slices were then placed in a small dish, 2% 2,3,5-triphenyltetrazolium chloride (TTC) solution (Sigma, United States) was added, and 4% paraformaldehyde was used for fixation. Images were captured using a digital camera. ImageJ software was used to measure the volume of the brain infarction.

The subject of assay [2] is CIRI mice. Put plainly: Immunofluorescence staining (NeuN, TUNEL, Iba-1) of brain slices of CIRI mice. The class given is in vivo, C57BL/6 mice. On the procedure:
As mentioned previously, immunofluorescence staining was performed on paraffin-embedded brain slices ([Ye et al., 2020]). After standard histological procedures, the slices were treated with the TUNEL (terminal deoxynucleotidyl transferase dUTP nick end labeling) reaction mixture to detect apoptosis according to the manufacturer’s protocol (Roche, Germany). Furthermore, the slices were used for immunofluorescence with rabbit anti-NeuN antibody (1:300, CST) and rabbit anti-Iba-1 antibody (1:500, CST). After incubating overnight at 4°C, goat anti-rabbit IgG (1:1000) secondary antibodies were applied, and the brain slices were incubated for 2 h at room temperature. Finally, the slices were washed and labeled with 4′,6-diamidino-2-phenylindole for 10 min at room temperature. Images were captured using a fluorescence microscope.

Assay [3] has as its system CIRI mice. Description: Flow cytometry of immune cells isolated from the ischemic brain hemisphere. The class given is in vivo, C57BL/6 mice. As to conditions: TJ-5 injected at the time of reperfusion. On the procedure: After the mice were anesthetized, 0.9% saline was used for transcardial perfusion. The right brain hemispheres were homogenized in a 6-well plate using 2 ml Hank’s balanced salt solution (HBSS, Solarbio) per well. Collagenase IV (1 mg/ml) was added to […]. The brain homogenate was filtered through a 70 μm cell strainer and centrifuged at 300 g for 5 min at 4°C. Then, 2 ml of 30% Percoll (Sigma) were added to resuspend the brain cell precipitate, and the resuspended cells were slowly added to a 15 ml centrifuge tube containing 3 ml of 70% Percoll. The intermediate layer cells were analyzed by flow cytometry after density-gradient centrifugation.
Approximately 5 × 10^5 cells were suspended in 200 μL HBSS, and anti-mouse CD16/CD32 (5 ng/μL) was used to block Fc receptor binding. The cells were stained with allophycocyanin-conjugated CD45 antibody (1 ng/μL), FITC-conjugated CD11b antibody (1 ng/μL), and phycoerythrin-conjugated Ly6G antibody (1 ng/μL) and incubated in the dark at 4°C for 30 min. Finally, the cells were washed with HBSS buffer, resuspended in 200 μL of HBSS, and analyzed using a flow cytometer (BD FACSCalibur).

Assay [4] deals with LPS-stimulated BV-2 cells. Description: LPS-stimulated BV-2 cell model: morphology and TNF-α/IL-6 ELISA. It counts as cell-based. On the procedure:
BV-2 microglial and SH-SY5Y cells were cultured as previously described ([Zhao et al., 2020]). A lipopolysaccharide (LPS)-stimulated BV-2 cell model was established to mimic severe neuroinflammation induced by multiple inflammatory mediators after reperfusion ([Li et al., 2021]). BV-2 cells were pretreated with different concentrations of TJ-5 for 2 h before LPS (1 μg/ml) stimulation (#L2880, Sigma, United States). Twenty-4 hours later, BV-2 cells and the culture supernatants were harvested for subsequent experiments. In addition, ST2825, a recognized MyD88 inhibitor, was used as positive control group.
Enzyme-linked immunosorbent assay (ELISA) kits were used to detect the levels of TNF-α, IL-1β, and IL-6 in the brain. Brain tissue was homogenized in 1 ml of phosphate-buffered saline using a tissue homogenizer. Then, the homogenates were centrifuged at 14,000 g for 10 min at 4 °C. The supernatant was immediately transferred for measurement following the manufacturer’s instructions. BV-2 cells were incubated with different treatments and the supernatants were collected and measured.

The test system of assay [5] is NF-κB p65. Description: NF-κB p65 nuclear translocation in LPS-stimulated BV-2 cells, immunofluorescence. It counts as cell-based. As to conditions: 12 h after LPS stimulation. On the procedure:
BV-2 microglial and SH-SY5Y cells were cultured as previously described ([Zhao et al., 2020]). A lipopolysaccharide (LPS)-stimulated BV-2 cell model was established to mimic severe neuroinflammation induced by multiple inflammatory mediators after reperfusion ([Li et al., 2021]). BV-2 cells were pretreated with different concentrations of TJ-5 for 2 h before LPS (1 μg/ml) stimulation (#L2880, Sigma, United States). […] In addition, ST2825, a recognized MyD88 inhibitor, was used as positive control group.
For BV-2 cells immunofluorescence staining, the cells were fixed with 4% paraformaldehyde for 10 min and permeabilized with 0.5% Triton X-100 for 10 min. After blocking with goat serum, the cells were sequentially incubated with the primary antibody, secondary antibody, and Hoechst in sequence. Images were captured using a confocal microscope. The fluorescence intensity was analyzed using ImageJ software.

On to `O=C(CCN1CCN(Cc2ccccc2)CC1)Nc1nc(-c2ccccc2)cs1` [TJ-5], for which the “percentage of infarct volume” value in assay [1] (TJ-5 15 mg/kg i.v. at 1 h of ischemia, 24 h reperfusion, TTC, I/R group 34.24%) is given as 8.47%. In addition, in assay [1] (TJ-5 15 mg/kg vs I/R group, 24 h reperfusion, Longa score), the neurological deficit score result is recorded as “significantly lower”. The infarct volume result in assay [1] (intravenous TJ-5 at 4 h reperfusion, TTC at 24 h after reperfusion) is given as “effectively reduced infarct volume”. Also, the “apoptosis (TUNEL) in whole brain and ischemic penumbra of the cortex” value in assay [2] (TJ-5 15 mg/kg i.v. after 1 h ischemia) is recorded as “significantly reduced”. Further, the “number of neurons (NeuN) in the injured hemisphere” value in assay [2] (TJ-5 15 mg/kg vs vehicle group) is listed as “significantly increased”. Also, in assay [2] (TJ-5 15 mg/kg, vs I/R group), the “number of Iba-1 positive cells in cortex” value is on record as “significantly decreased”. In assay [3], the “number of brain-infiltrating CD11b+CD45hi myeloid cells” value is listed as “reduced the number” and the “proportion of inactive microglia (CD11b+CD45int)” value was “increased the proportion”. Further, the “levels of TNF-α and IL-6 in supernatants” value in assay [4] (LPS-stimulated BV-2 cells, pretreatment 2 h, LPS 24 h, ELISA) is given as “markedly reduced”. Moreover, in assay [4] (pretreatment 2 h before LPS 1 μg/ml, 24 h), the “activation (morphology) of LPS-stimulated BV-2 cells” value is “inhibited”. The “LPS-induced NF-κB p65 nuclear translocation” value in assay [5] is listed as “significantly prevented”.
